Laboratory results reported in article PMC5433425 (PeerJ, 2017).
“And” between values parts separate entries of the source, which are not always exact repeats. Identical values can stand only once. Like-named read-outs stand apart in the source and are kept apart here.

How the values were obtained:
[1] = test system: E. coli AG100A (AcrAB pump-deficient); test: MIC, broth microdilution; type: cell-based, Escherichia coli
E. coli AG100 [2] = test: Checkerboard synergy assay (MIC of antibiotics/EtBr with efflux inhibitor); type: cell-based, Escherichia coli; conditions: AG100
Protocol: (§1) The assays were performed in triplicate and the MIC value was given as result of at least two concordant values.

E. coli AG100tet [3] = test: microbe, parasite or virus in culture; type: cell-based, Escherichia coli; conditions: AG100tet
Protocol: as §1

E. coli AG100A = conditions: EtBr […] + inhibitor 20 µM
E. coli AG100 [4] = test: EtBr accumulation by real-time fluorometry; conditions: EtBr 1 µg/ml + inhibitor 80 µM
E. coli AG100tet [5] = test: EtBr accumulation by real-time fluorometry; conditions: EtBr 2 µg/ml + inhibitor 80 µM
E. coli AG100 [6] = test: Membrane permeability assay (Live/Dead BacLight); conditions: for BacLight Live/Dead fluorescence 485/20,528/20 / BacLight Live/Dead fluorescence 485/20,590/35: raw well reading

## CCCOc1ccc(-c2cc(OCCN3CCNCC3)c3ccccc3n2)cc1 [PQQ4R, 4-(2-(piperazin-1-yl)ethoxy)-2-(4-propoxyphenyl) quinolone]
[1]; AG100A vs AG100
  MIC decrease against AG100A compared with wild-type parental strain: 8 fold
[1]; E. coli AG100A
  MIC: 32 μg/ml and 81.7 μM
E. coli AG100 [2]; inhibitor 40 μM
  MIC of EtBr in presence of the efflux inhibitor: 200 µg/mL
  MIC of OFX in presence of the efflux inhibitor: 0.125 µg/mL
  MIC of OXA in presence of the efflux inhibitor: 512 µg/mL
  MIC of TET in presence of the efflux inhibitor: 1 µg/mL
E. coli AG100 [2]; inhibitor 80 μM
  MIC of EtBr in presence of the efflux inhibitor: 100 µg/mL
  MIC of OFX in presence of the efflux inhibitor: 0.125 µg/mL
  MIC of OXA in presence of the efflux inhibitor: 512 µg/mL
  MIC of TET in presence of the efflux inhibitor: 1 µg/mL
  reduction in EtBr MIC: 2 fold
E. coli AG100 [2]; inhibitor 160 μM
  MIC of EtBr in presence of the efflux inhibitor: 50 µg/mL
  MIC of OFX in presence of the efflux inhibitor: 0.125 µg/mL
  MIC of OXA in presence of the efflux inhibitor: 512 µg/mL
  MIC of TET in presence of the efflux inhibitor: 1 µg/mL
  reduction in EtBr MIC: 4 fold
E. coli AG100 [2]; inhibitor 40 to 160 µM
  effect on OXA MIC: no effect
  reduction in OFX MIC: 2 fold
  reduction in TET MIC: 2 fold
E. coli AG100tet [3]; inhibitor 40 μM
  MIC of EtBr in presence of the efflux inhibitor: 512 µg/mL
  MIC of OFX in presence of the efflux inhibitor: 0.5 µg/mL
  MIC of OXA in presence of the efflux inhibitor: >2,048 μg/ml
  MIC of TET in presence of the efflux inhibitor: 16 µg/mL
E. coli AG100tet [3]; inhibitor 80 μM
  MIC of EtBr in presence of the efflux inhibitor: 512 µg/mL
  MIC of OFX in presence of the efflux inhibitor: 0.25 µg/mL
  MIC of OXA in presence of the efflux inhibitor: 2,048 μg/ml
  MIC of TET in presence of the efflux inhibitor: 16 µg/mL
E. coli AG100tet [3]; inhibitor 160 μM
  MIC of EtBr in presence of the efflux inhibitor: 512 µg/mL
  MIC of OFX in presence of the efflux inhibitor: 0.25 µg/mL
  MIC of OXA in presence of the efflux inhibitor: 2,048 μg/ml
  MIC of TET in presence of the efflux inhibitor: 16 µg/mL
E. coli AG100tet [3]; inhibitor 80 and 160 µM
  decrease in OFX MIC: 4 fold
  decrease in TET MIC: 4 fold
E. coli AG100A; cycle 1
  EtBr fluorescence: 3.005
E. coli AG100A; cycle 2
  EtBr fluorescence: 3.689
E. coli AG100A; cycle 3
  EtBr fluorescence: 4.425
E. coli AG100A; cycle 4
  EtBr fluorescence: 5.09
E. coli AG100A; cycle 5
  EtBr fluorescence: 5.663
E. coli AG100A; cycle 6
  EtBr fluorescence: 6.261
E. coli AG100A; cycle 7
  EtBr fluorescence: 6.784
E. coli AG100A; cycle 8
  EtBr fluorescence: 7.347
E. coli AG100A; cycle 9
  EtBr fluorescence: 7.957
E. coli AG100A; cycle 10
  EtBr fluorescence: 8.552
E. coli AG100A; cycle 11
  EtBr fluorescence: 9.107
E. coli AG100A; cycle 12
  EtBr fluorescence: 9.505
E. coli AG100A; cycle 13
  EtBr fluorescence: 10.1469
E. coli AG100A; cycle 14
  EtBr fluorescence: 10.666
E. coli AG100A; cycle 15
  EtBr fluorescence: 11.2994
E. coli AG100A; cycle 16
  EtBr fluorescence: 11.7134
E. coli AG100A; cycle 17
  EtBr fluorescence: 12.3988
E. coli AG100A; cycle 18
  EtBr fluorescence: 12.7522
E. coli AG100A; cycle 19
  EtBr fluorescence: 13.174
E. coli AG100A; cycle 20
  EtBr fluorescence: 13.8181
E. coli AG100A; cycle 21
  EtBr fluorescence: 14.2909
E. coli AG100A; cycle 22
  EtBr fluorescence: 14.7163
E. coli AG100A; cycle 23
  EtBr fluorescence: 15.2505
E. coli AG100A; cycle 24
  EtBr fluorescence: 16.0503
E. coli AG100A; cycle 25
  EtBr fluorescence: 16.1642
E. coli AG100A; cycle 26
  EtBr fluorescence: 16.8061
E. coli AG100A; cycle 27
  EtBr fluorescence: 17.3806
E. coli AG100A; cycle 28
  EtBr fluorescence: 17.8352
E. coli AG100A; cycle 29
  EtBr fluorescence: 18.1109
E. coli AG100A; cycle 30
  EtBr fluorescence: 18.6334
E. coli AG100 [4]; cycle 1
  EtBr fluorescence: 8.891
E. coli AG100 [4]; cycle 2
  EtBr fluorescence: 15.958
E. coli AG100 [4]; cycle 3
  EtBr fluorescence: 24.4435
E. coli AG100 [4]; cycle 4
  EtBr fluorescence: 32.9586
E. coli AG100 [4]; cycle 5
  EtBr fluorescence: 42.0049
E. coli AG100 [4]; cycle 6
  EtBr fluorescence: 50.7014
E. coli AG100 [4]; cycle 7
  EtBr fluorescence: 59.8624
E. coli AG100 [4]; cycle 8
  EtBr fluorescence: 68.0874
E. coli AG100 [4]; cycle 9
  EtBr fluorescence: 75.8019
E. coli AG100 [4]; cycle 10
  EtBr fluorescence: 82.5362
E. coli AG100 [4]; cycle 11
  EtBr fluorescence: 89.2
E. coli AG100 [4]; cycle 12
  EtBr fluorescence: 95.2197
E. coli AG100 [4]; cycle 13
  EtBr fluorescence: 100
E. coli AG100 [4]; cycle 14
  EtBr fluorescence: 100
E. coli AG100 [4]; cycle 15
  EtBr fluorescence: 100
E. coli AG100 [4]; cycle 16
  EtBr fluorescence: 100
E. coli AG100 [4]; cycle 17
  EtBr fluorescence: 100
E. coli AG100 [4]; cycle 18
  EtBr fluorescence: 100
E. coli AG100 [4]; cycle 19
  EtBr fluorescence: 100
E. coli AG100 [4]; cycle 20
  EtBr fluorescence: 100
E. coli AG100 [4]; cycle 21
  EtBr fluorescence: 100
E. coli AG100 [4]; cycle 22
  EtBr fluorescence: 100
E. coli AG100 [4]; cycle 23
  EtBr fluorescence: 100
E. coli AG100 [4]; cycle 24
  EtBr fluorescence: 100
E. coli AG100 [4]; cycle 25
  EtBr fluorescence: 100
E. coli AG100 [4]; cycle 26
  EtBr fluorescence: 100
E. coli AG100 [4]; cycle 27
  EtBr fluorescence: 100
E. coli AG100 [4]; cycle 28
  EtBr fluorescence: 100
E. coli AG100 [4]; cycle 29
  EtBr fluorescence: 100
E. coli AG100 [4]; cycle 30
  EtBr fluorescence: 100
E. coli AG100tet [5]; cycle 1
  EtBr fluorescence: 9.875
E. coli AG100tet [5]; cycle 2
  EtBr fluorescence: 10.6846
E. coli AG100tet [5]; cycle 3
  EtBr fluorescence: 11.6019
E. coli AG100tet [5]; cycle 4
  EtBr fluorescence: 12.4491
E. coli AG100tet [5]; cycle 5
  EtBr fluorescence: 13.6501
E. coli AG100tet [5]; cycle 6
  EtBr fluorescence: 14.6495
E. coli AG100tet [5]; cycle 7
  EtBr fluorescence: 15.6732
E. coli AG100tet [5]; cycle 8
  EtBr fluorescence: 16.6247
E. coli AG100tet [5]; cycle 9
  EtBr fluorescence: 17.8761
E. coli AG100tet [5]; cycle 10
  EtBr fluorescence: 18.9066
E. coli AG100tet [5]; cycle 11
  EtBr fluorescence: 20.4282
E. coli AG100tet [5]; cycle 12
  EtBr fluorescence: 21.7393
E. coli AG100tet [5]; cycle 13
  EtBr fluorescence: 23.4754
E. coli AG100tet [5]; cycle 14
  EtBr fluorescence: 25.1013
E. coli AG100tet [5]; cycle 15
  EtBr fluorescence: 27.2614
E. coli AG100tet [5]; cycle 16
  EtBr fluorescence: 29.2172
E. coli AG100tet [5]; cycle 17
  EtBr fluorescence: 32.322
E. coli AG100tet [5]; cycle 18
  EtBr fluorescence: 34.6681
E. coli AG100tet [5]; cycle 19
  EtBr fluorescence: 38.0364
E. coli AG100tet [5]; cycle 20
  EtBr fluorescence: 40.8691
E. coli AG100tet [5]; cycle 21
  EtBr fluorescence: 44.3636
E. coli AG100tet [5]; cycle 22
  EtBr fluorescence: 47.9426
E. coli AG100tet [5]; cycle 23
  EtBr fluorescence: 51.4641
E. coli AG100tet [5]; cycle 24
  EtBr fluorescence: 55.2307
E. coli AG100tet [5]; cycle 25
  EtBr fluorescence: 58.9315
E. coli AG100tet [5]; cycle 26
  EtBr fluorescence: 63.4348
E. coli AG100tet [5]; cycle 27
  EtBr fluorescence: 67.7728
E. coli AG100tet [5]; cycle 28
  EtBr fluorescence: 71.5821
E. coli AG100tet [5]; cycle 29
  EtBr fluorescence: 76.2698
E. coli AG100tet [5]; cycle 30
  EtBr fluorescence: 79.495
E. coli AG100 [6]; 80 uM
  BacLight Live/Dead fluorescence 485/20,528/20: 153 and 118
  BacLight Live/Dead fluorescence 485/20,590/35: 38 and 30
E. coli AG100 [6]; 160 uM
  BacLight Live/Dead fluorescence 485/20,528/20: 278 and 253
  BacLight Live/Dead fluorescence 485/20,590/35: 85 and 82
E. coli AG100 [6]; 320 uM
  BacLight Live/Dead fluorescence 485/20,528/20: 277 and 252
  BacLight Live/Dead fluorescence 485/20,590/35: 87 and 78
E. coli AG100 [6]; 640 uM
  BacLight Live/Dead fluorescence 485/20,528/20: 160 and 178
  BacLight Live/Dead fluorescence 485/20,590/35: 79 and 82
E. coli AG100 [6]; AG100, 80 µM
  membrane permeability increase / membrane permeation: 4%
E. coli AG100 [6]; AG100, 80 µM (≈1/8 MIC), 1 h
  effect on cell membrane integrity: did not alter
E. coli AG100 [6]; AG100, 160 μM (1/4 MIC)
  membrane permeation: 22%
E. coli AG100 [6]; AG100, 320 μM (1/2 MIC)
  membrane permeation: 28%
E. coli AG100 [6]; AG100, 640 μM (MIC)
  membrane permeation: 50%
E. coli AG100 [6]; AG100, half MIC, 1 h
  reduction of membrane integrity: 28%
